Assays:
[1] = biological target: JAK2 (Homo sapiens, UniProt O60674); assay: Biochemical potency on JAK2, TR-FRET (LANCE Ultra kinase assay); settings: ATP corresponding to Km; cell-free; read-out: JAK2 inhibitory activity (pIC50) (converted)
In short: (§1)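 ULight-JAK-1 (Tyr1023) peptide phosphorylation at Km ATP, 1.5 h r.t.; substrate solution held peptide 30/50/20/10 nM and ATP 20/0.7/0.2/12 μM, enzyme solution 0.15/0.083/0.025/0.144 ng/μL (JAK1/JAK2/JAK3/TYK2). EDTA stop, Eu-PT66 antibody TR-FRET read at 665 nm; 11-point 5-fold dilutions from 20 μM; IC50 by variable-slope fit.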

[2] = biological target: TYK2 (Homo sapiens, UniProt P29597); assay: Biochemical potency on Tyk2, TR-FRET (LANCE Ultra kinase assay); settings: ATP corresponding to Km; cell-free; read-out: TYK2 inhibitory activity (pIC50) (converted)
In short: as §1

[3] = system: pSTAT6 in BEAS-2B human cell line; assay: Inhibition of IL-13 induced pSTAT6 in BEAS; format: cell-based; settings: for IC50: Homo sapiens, BEAS-2B, 0.5 h, IL-13 trigger, 30 min, parent compound; for Fold difference parent vs predicted acid metabolite: ratio=IC50 predicted acid metabolite/IC50 ester
In short: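 BEAS-2B cells grown 48 h, pre-treated 30 min with compound, then stimulated 30 min with IL-13. Lysate pSTAT6 (Tyr641) measured by sandwich ELISA. Eleven 5-fold dilutions from 10 μM, in duplicate, fitted to IC50.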

[4] = biological target: JAK1 (Homo sapiens, UniProt P23458); assay: Biochemical potency on JAK1, TR-FRET (LANCE Ultra kinase assay); settings: ATP corresponding to Km; cell-free; read-out: JAK1 inhibitory activity (pIC50) (converted)
In short: as §1

[5] = biological target: T1, JAK3 (Homo sapiens, UniProt P52333); assay: Biochemical potency on JAK3, TR-FRET (LANCE Ultra kinase assay); settings: ATP corresponding to Km; cell-free; read-out: JAK3 inhibitory activity (pIC50) (converted)
T1 sequence (P52333 1-1124): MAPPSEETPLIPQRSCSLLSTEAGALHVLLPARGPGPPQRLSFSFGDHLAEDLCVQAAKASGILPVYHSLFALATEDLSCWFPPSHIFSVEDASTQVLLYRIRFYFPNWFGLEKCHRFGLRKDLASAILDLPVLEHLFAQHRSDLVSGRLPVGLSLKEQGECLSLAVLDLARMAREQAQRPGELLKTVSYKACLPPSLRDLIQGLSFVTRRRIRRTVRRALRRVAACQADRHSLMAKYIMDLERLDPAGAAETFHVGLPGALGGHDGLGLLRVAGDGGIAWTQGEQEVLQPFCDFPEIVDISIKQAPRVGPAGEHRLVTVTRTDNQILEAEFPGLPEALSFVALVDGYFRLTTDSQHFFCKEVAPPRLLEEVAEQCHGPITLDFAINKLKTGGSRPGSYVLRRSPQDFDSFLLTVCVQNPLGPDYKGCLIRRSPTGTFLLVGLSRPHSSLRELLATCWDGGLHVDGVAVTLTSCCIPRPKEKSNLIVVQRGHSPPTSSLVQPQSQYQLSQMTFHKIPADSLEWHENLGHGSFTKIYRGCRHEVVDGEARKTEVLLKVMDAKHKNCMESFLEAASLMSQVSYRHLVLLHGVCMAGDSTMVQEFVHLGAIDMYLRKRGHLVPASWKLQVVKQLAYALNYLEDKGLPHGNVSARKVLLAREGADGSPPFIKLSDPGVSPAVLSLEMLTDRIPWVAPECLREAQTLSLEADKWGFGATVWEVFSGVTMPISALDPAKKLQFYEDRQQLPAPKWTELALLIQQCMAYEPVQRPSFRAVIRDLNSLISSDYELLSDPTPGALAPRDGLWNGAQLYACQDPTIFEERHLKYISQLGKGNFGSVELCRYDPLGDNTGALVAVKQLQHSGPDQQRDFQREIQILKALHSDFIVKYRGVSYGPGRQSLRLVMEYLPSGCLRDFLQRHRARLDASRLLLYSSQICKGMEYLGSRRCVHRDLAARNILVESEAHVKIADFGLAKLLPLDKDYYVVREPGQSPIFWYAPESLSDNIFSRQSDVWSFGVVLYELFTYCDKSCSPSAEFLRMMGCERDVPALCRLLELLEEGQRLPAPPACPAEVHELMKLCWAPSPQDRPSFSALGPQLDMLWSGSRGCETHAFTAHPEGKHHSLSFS
In short: as §1

Sequence of JAK1 (P23458 whole entry): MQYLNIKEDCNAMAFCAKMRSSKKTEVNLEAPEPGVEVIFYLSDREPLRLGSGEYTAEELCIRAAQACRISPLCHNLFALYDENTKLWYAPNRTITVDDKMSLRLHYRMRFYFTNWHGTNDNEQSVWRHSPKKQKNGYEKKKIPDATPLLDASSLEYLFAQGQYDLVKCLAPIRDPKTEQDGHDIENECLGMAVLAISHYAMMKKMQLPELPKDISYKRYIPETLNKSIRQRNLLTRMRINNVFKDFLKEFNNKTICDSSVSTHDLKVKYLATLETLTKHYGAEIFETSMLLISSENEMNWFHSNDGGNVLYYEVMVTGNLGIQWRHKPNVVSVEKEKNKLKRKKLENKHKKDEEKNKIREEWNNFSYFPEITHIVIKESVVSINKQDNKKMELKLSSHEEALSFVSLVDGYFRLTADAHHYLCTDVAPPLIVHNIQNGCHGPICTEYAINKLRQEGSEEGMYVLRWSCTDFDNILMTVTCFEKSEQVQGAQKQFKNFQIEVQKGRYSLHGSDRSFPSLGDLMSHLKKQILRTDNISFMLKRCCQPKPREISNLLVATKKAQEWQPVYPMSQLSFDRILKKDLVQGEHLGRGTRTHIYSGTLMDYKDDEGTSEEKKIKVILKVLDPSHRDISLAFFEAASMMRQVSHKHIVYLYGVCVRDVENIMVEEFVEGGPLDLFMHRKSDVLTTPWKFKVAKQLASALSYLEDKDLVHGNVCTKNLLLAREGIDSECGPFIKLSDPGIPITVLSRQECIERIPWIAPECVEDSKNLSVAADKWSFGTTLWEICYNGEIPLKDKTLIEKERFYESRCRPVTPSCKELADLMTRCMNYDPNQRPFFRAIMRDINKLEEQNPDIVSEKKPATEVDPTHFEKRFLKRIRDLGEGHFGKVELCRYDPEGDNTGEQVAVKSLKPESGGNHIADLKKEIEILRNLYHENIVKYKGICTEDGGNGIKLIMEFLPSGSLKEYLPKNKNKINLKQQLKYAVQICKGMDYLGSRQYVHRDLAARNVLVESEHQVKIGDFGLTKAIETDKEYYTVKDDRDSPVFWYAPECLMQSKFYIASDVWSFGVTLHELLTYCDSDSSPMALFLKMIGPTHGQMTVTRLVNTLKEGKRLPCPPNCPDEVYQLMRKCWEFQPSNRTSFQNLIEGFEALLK
Sequence of JAK2 (O60674 whole entry): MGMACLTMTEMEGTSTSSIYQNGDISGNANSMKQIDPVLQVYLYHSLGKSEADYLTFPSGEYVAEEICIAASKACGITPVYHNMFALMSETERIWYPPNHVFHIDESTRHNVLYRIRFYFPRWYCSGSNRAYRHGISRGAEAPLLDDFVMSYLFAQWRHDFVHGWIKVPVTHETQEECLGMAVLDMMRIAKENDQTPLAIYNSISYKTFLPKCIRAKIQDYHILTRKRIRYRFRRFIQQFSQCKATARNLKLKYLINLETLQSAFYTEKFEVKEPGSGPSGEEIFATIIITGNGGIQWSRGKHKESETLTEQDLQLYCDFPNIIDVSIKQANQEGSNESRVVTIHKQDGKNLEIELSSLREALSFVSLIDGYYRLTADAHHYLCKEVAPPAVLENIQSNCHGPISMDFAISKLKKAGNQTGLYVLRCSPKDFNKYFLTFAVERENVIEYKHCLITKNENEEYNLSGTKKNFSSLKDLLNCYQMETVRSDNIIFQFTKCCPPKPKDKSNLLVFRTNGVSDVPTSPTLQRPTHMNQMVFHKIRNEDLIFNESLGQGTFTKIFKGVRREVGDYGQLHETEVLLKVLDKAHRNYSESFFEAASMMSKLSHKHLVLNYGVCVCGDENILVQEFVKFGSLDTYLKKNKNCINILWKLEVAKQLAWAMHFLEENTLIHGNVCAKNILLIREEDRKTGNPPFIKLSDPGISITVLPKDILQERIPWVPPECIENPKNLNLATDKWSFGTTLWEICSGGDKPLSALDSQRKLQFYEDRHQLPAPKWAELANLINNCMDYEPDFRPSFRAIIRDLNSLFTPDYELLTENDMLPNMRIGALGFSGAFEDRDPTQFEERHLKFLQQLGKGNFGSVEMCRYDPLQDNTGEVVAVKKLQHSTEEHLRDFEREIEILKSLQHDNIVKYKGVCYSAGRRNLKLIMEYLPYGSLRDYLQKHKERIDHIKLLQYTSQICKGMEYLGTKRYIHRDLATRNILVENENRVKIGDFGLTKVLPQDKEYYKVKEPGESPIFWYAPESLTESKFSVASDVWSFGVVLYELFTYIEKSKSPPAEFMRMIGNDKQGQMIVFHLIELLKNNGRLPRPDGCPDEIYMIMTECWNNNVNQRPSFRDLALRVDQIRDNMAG
Sequence of TYK2 (P29597 whole entry): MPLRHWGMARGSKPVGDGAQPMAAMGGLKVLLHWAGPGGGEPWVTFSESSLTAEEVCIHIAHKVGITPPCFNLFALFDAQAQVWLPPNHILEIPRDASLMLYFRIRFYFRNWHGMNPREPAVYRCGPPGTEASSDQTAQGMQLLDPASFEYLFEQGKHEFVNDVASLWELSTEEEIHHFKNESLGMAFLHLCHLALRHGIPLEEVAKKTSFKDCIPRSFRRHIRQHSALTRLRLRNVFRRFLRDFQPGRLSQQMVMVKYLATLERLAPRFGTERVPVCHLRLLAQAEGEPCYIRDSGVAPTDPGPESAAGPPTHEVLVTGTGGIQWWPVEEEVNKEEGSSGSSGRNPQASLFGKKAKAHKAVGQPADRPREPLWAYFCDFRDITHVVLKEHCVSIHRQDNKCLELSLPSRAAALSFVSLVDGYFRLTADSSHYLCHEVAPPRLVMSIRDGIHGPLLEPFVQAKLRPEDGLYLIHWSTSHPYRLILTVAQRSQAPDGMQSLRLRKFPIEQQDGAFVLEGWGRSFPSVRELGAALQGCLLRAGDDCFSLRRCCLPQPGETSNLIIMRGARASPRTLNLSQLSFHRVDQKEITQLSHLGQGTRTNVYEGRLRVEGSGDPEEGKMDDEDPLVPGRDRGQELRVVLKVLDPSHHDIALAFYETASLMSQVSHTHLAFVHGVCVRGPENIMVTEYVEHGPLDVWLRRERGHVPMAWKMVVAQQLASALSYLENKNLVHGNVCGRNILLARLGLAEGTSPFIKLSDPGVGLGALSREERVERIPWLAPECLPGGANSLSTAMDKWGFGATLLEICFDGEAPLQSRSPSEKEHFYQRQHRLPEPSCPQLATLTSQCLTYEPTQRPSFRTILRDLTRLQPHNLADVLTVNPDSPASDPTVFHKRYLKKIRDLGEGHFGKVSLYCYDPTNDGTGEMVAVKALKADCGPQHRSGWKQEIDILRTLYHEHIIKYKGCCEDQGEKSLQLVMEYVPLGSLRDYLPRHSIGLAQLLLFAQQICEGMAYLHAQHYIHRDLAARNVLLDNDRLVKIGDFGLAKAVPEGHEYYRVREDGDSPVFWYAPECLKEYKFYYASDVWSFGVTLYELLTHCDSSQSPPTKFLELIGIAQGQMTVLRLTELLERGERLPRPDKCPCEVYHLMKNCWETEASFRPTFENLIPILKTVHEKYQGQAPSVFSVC

Structure (SMILES)	IC50 [1] [nM]	IC50 [2] [nM]	IC50 [4] [nM]	IC50 [5] [nM]	IC50 [3] [nM]	Fold difference parent vs predicted acid metabolite [3]
CCOC(=O)C1CCN(CCOC(=O)Nc2nn(-c3cc4c(cc3OC)NCCO4)c3cc(-c4cnn5cccnc45)ncc23)CC1 [Example 41, ethyl 1-(2-(((1-(6-methoxy-3,4-dihydro-2H-benzo[b][1,4]oxazin-7-yl)-6-(pyrazolo[1,5-a]pyrimidin-3-yl)-1H-pyrazolo[4,3-c]pyridin-3-yl)carbamoyl)oxy)ethyl)piperidine-4-carboxylate]	≤ 5.01	5.01 to 50.1	≤ 5.01	≤ 5.01	≤ 5.01	kkk (200>ratio≥100)
CCOC(=O)[C@H]1CCN(CCNC(=O)c2nn(-c3cc4c(cc3OC)NCCO4)c3cc(-c4cnn5cccnc45)ncc23)C1 [Example 44, ethyl (S)-1-(2-(1-(6-methoxy-3,4-dihydro-2H-benzo[b][1,4]oxazin-7-yl)-6-(pyrazolo[1,5-a]pyrimidin-3-yl)-1H-pyrazolo[4,3-c]pyridine-3-carboxamido)ethyl)pyrrolidine-3-carboxylate]	≤ 5.01	5.01 to 50.1	≤ 5.01	≤ 5.01	5.01 to 50.1	kkkk (ratio≥200)
COc1cc2c(cc1-n1nc(C(=O)NCCN3CCC(C(=O)OC4CC(C#N)C4)CC3)c3cnc(-c4cnn5cccnc45)cc31)OCCN2 (stereo not drawn) [Example 47, 3-cyanocyclobutyl 1-(2-(1-(6-methoxy-3,4-dihydro-2H-benzo[b][1,4]oxazin-7-yl)-6-(pyrazolo[1,5-a]pyrimidin-3-yl)-1H-pyrazolo[4,3-c]pyridine-3-carboxamido)ethyl)piperidine-4-carboxylate]	≤ 5.01	5.01 to 50.1	≤ 5.01	≤ 5.01	≤ 5.01	kkkk (ratio≥200)
COc1cc2c(cc1-n1nc(C(=O)NCCN3CCC(CC(=O)OCC(C)(C)O)CC3)c3cnc(-c4cnn5cccnc45)cc31)OCCN2 [Example 48, 2-hydroxy-2-methylpropyl 2-(1-(2-(1-(6-methoxy-3,4-dihydro-2H-benzo[b][1,4]oxazin-7-yl)-6-(pyrazolo[1,5-a]pyrimidin-3-yl)-1H-pyrazolo[4,3-c]pyridine-3-carboxamido)ethyl)piperidin-4-yl)acetate]	≤ 5.01	5.01 to 50.1	≤ 5.01	≤ 5.01	5.01 to 50.1	kkkk (ratio≥200)
COc1cc2c(cc1-n1nc(C(=O)NCCN3CC[C@@H](C(=O)OCC(C)(C)C#N)C3)c3cnc(-c4cnn5cccnc45)cc31)OCCN2 [Example 49, 2-cyano-2-methylpropyl (R)-1-(2-(1-(6-methoxy-3,4-dihydro-2H-benzo[b][1,4]oxazin-7-yl)-6-(pyrazolo[1,5-a]pyrimidin-3-yl)-1H-pyrazolo[4,3-c]pyridine-3-carboxamido)ethyl)pyrrolidine-3-carboxylate]	≤ 5.01	5.01 to 50.1	≤ 5.01	≤ 5.01	≤ 5.01	kkk (200>ratio≥100)
COc1cc2c(cc1-n1nc(C(=O)NCCN3CCC(CC(=O)O[C@@H]4CCN(CCF)C4)CC3)c3cnc(-c4cnn5cccnc45)cc31)OCCN2 [Example 52, (R)-1-(2-fluoroethyl)pyrrolidin-3-yl 2-(1-(2-(1-(6-methoxy-3,4-dihydro-2H-benzo[b][1,4]oxazin-7-yl)-6-(pyrazolo[1,5-a]pyrimidin-3-yl)-1H-pyrazolo[4,3-c]pyridine-3-carboxamido)ethyl)piperidin-4-yl)acetate]	≤ 5.01	5.01 to 50.1	≤ 5.01	≤ 5.01	5.01 to 50.1	kkk (200>ratio≥100)

Further lines, with some results ahead:

IC50 [1] [nM]	IC50 [2] [nM]	IC50 [4] [nM]	IC50 [5] [nM]	Structure (SMILES)	IC50 [3] [nM]	Fold difference parent vs predicted acid metabolite [3]
≤ 5.01	5.01 to 50.1	≤ 5.01	≤ 5.01	CCOC(=O)[C@H]1C[C@@H](OC(=O)Nc2nn(-c3cc4c(cc3OC)NCCO4)c3cc(-c4cnn5cccnc45)ncc23)C1 [Example 40, ethyl (1s,3s)-3-(((1-(6-methoxy-3,4-dihydro-2H-benzo[b][1,4]oxazin-7-yl)-6-(pyrazolo[1,5-a]pyrimidin-3-yl)-1H-pyrazolo[4,3-c]pyridin-3-yl)carbamoyl)oxy)cyclobutane-1-carboxylate]	5.01 to 50.1	kk (100>ratio≥10)
≤ 5.01	5.01 to 50.1	≤ 5.01	≤ 5.01	COc1cc2c(cc1-n1nc(C(=O)NCCN3CCC(C(=O)OC4CCN(C)CC4)CC3)c3cnc(-c4cnn5cccnc45)cc31)OCCN2 [Example 42, 1-methylpiperidin-4-yl 1-(2-(1-(6-methoxy-3,4-dihydro-2H-benzo[b][1,4]oxazin-7-yl)-6-(pyrazolo[1,5-a]pyrimidin-3-yl)-1H-pyrazolo[4,3-c]pyridine-3-carboxamido)ethyl)piperidine-4-carboxylate]	5.01 to 50.1	kkk (200>ratio≥100)
≤ 5.01	5.01 to 50.1	≤ 5.01	≤ 5.01	CCOC(=O)[C@@H]1CCN(CCNC(=O)c2nn(-c3cc4c(cc3OC)NCCO4)c3cc(-c4cnn5cccnc45)ncc23)C1 [Example 43, ethyl (R)-1-(2-(1-(6-methoxy-3,4-dihydro-2H-benzo[b][1,4]oxazin-7-yl)-6-(pyrazolo[1,5-a]pyrimidin-3-yl)-1H-pyrazolo[4,3-c]pyridine-3-carboxamido)ethyl)pyrrolidine-3-carboxylate]	5.01 to 50.1	kkk (200>ratio≥100)
≤ 5.01	5.01 to 50.1	≤ 5.01	≤ 5.01	COc1cc2c(cc1-n1nc(C(=O)NCCN3CCC(C(=O)OC(C)C)CC3)c3cnc(-c4cnn5cccnc45)cc31)OCCN2 [Example 45, isopropyl 1-(2-(1-(6-methoxy-3,4-dihydro-2H-benzo[b][1,4]oxazin-7-yl)-6-(pyrazolo[1,5-a]pyrimidin-3-yl)-1H-pyrazolo[4,3-c]pyridine-3-carboxamido)ethyl)piperidine-4-carboxylate]	≤ 5.01	kkkk (ratio≥200)
≤ 5.01	5.01 to 50.1	≤ 5.01	≤ 5.01	COc1cc2c(cc1-n1nc(C(=O)OCC3CN(C)CCO3)c3cnc(-c4cnn5cccnc45)cc31)OCCN2 (stereo not drawn) [Example 46, (4-methylmorpholin-2-yl)methyl 1-(6-methoxy-3,4-dihydro-2H-benzo[b][1,4]oxazin-7-yl)-6-(pyrazolo[1,5-a]pyrimidin-3-yl)-1H-pyrazolo[4,3-c]pyridine-3-carboxylate]	5.01 to 50.1	kkk (200>ratio≥100)
≤ 5.01	5.01 to 50.1	≤ 5.01	≤ 5.01	COc1cc2c(cc1-n1nc(C(=O)NCCN3CCC(C(=O)O[C@H]4CN(C)C[C@@H]4F)CC3)c3cnc(-c4cnn5cccnc45)cc31)OCCN2 [Example 50, (3S,4S)-4-fluoro-1-methylpyrrolidin-3-yl 1-(2-(1-(6-methoxy-3,4-dihydro-2H-benzo[b][1,4]oxazin-7-yl)-6-(pyrazolo[1,5-a]pyrimidin-3-yl)-1H-pyrazolo[4,3-c]pyridine-3-carboxamido)ethyl)piperidine-4-carboxylate]	≤ 5.01	kkkk (ratio≥200)
